# Reference: ChEMBL document CHEMBL1201862, “PubChem BioAssay data set” (2004)
#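 Cultured in 96-well plates, cells were exposed to test compound for 48 hours across five concentrations. At the GI50, growth is halved.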 Active and inactive are the calls of the source. Cut-off read from the data, not from the text of the source: active = GI50 up to about 1.1 µM and inactive = higher.
# Columns and labels:
# Assay in all cases: NCI anticancer screen, dose series, 48 h
# 786-0 = test system: 786-0
# SNB-75 = test system: SNB-75
# SW-620 = test system: SW-620
# CAKI-1 = test system: CAKI-1
# OVCAR-5 = test system: OVCAR-5
# HT-29 = test system: HT-29
# SK-MEL-2 = test system: SK-MEL-2
# UO-31 = test system: UO-31
# OVCAR-8 = test system: OVCAR-8
# OVCAR-3 = test system: OVCAR-3
# HCT-15 = test system: HCT-15
# U-251 = test system: U-251
# HL-60 = test system: HL-60
# SK-MEL-5 = test system: SK-MEL-5
# SN12C = test system: SN12C
# SK-OV-3 = test system: SK-OV-3
Structure (SMILES),GI50 (786-0),GI50 (SNB-75),GI50 (SW-620),GI50 (CAKI-1),GI50 (OVCAR-5),GI50 (HT-29),GI50 (SK-MEL-2),GI50 (UO-31),GI50 (OVCAR-8),GI50 (OVCAR-3),GI50 (HCT-15),GI50 (U-251),GI50 (HL-60),GI50 (SK-MEL-5),GI50 (SN12C),GI50 (SK-OV-3)
O=C(c1ccccc1)c1c(CC(O)c2cccnc2)n(C(=O)c2ccccc2)c2ccccc12 (stereo not drawn),33.2 µM (inactive),3.72 µM (inactive),26.6 µM (inactive),26.4 µM (inactive),17.9 µM (inactive),18.8 µM (inactive),20.3 µM (inactive),14.1 µM (inactive),25.3 µM (inactive),16.6 µM (inactive),21.3 µM,17 µM (inactive),21.5 µM (inactive),16.9 µM (inactive),–,–
C#C[C@H]1CCCCCC1O (stereo partly drawn),> 100 µM (inactive),> 100 µM (inactive),23.3 µM (inactive),> 100 µM (inactive),> 100 µM (inactive),> 100 µM (inactive),> 100 µM (inactive),> 100 µM (inactive),> 100 µM (inactive),> 100 µM (inactive),> 100 µM,> 100 µM (inactive),36.1 µM (inactive),> 100 µM (inactive),> 100 µM (inactive),> 100 µM (inactive)
O=C1c2ccccc2C(=O)N1CCn1nc(-c2ccccc2)cc(-c2ccccc2)c1=O,> 100 µM (inactive),46.7 µM (inactive),> 100 µM (inactive),–,> 100 µM (inactive),52.6 µM (inactive),82 µM (inactive),18.9 µM (inactive),33.3 µM (inactive),27.2 µM (inactive),38.2 µM,71.1 µM (inactive),8.51 µM (inactive),52.5 µM (inactive),44.6 µM (inactive),> 100 µM (inactive)
c1ccc(N2N=C(c3ccco3)CC2c2ccco2)cc1 (stereo not drawn),> 100 µM (inactive),22.3 µM (inactive),> 100 µM (inactive),–,> 100 µM (inactive),75.9 µM (inactive),> 100 µM (inactive),28.6 µM (inactive),> 100 µM (inactive),59.6 µM (inactive),69.8 µM,> 100 µM (inactive),25.2 µM (inactive),51.4 µM (inactive),> 100 µM (inactive),–
CC1C=C(OC(=O)c2ccccc2)C(=O)C(n2cc(F)c(=O)n(C(=O)c3ccccc3)c2=O)O1 (stereo not drawn),28.5 µM (inactive),49.2 µM (inactive),34.3 µM (inactive),32.4 µM (inactive),–,34.7 µM (inactive),45.3 µM (inactive),93.3 µM (inactive),37.2 µM (inactive),22.9 µM (inactive),32.5 µM,37.3 µM (inactive),23.9 µM (inactive),73.8 µM (inactive),53.1 µM (inactive),> 100 µM (inactive)
C/C(=C\c1ccccc1)C(O)C(=O)c1nc2ccc(Cl)cc2nc1O (stereo not drawn),> 100 µM (inactive),–,> 100 µM (inactive),> 100 µM (inactive),> 100 µM (inactive),> 100 µM (inactive),> 100 µM (inactive),> 100 µM (inactive),> 100 µM (inactive),55.2 µM (inactive),> 100 µM,> 100 µM (inactive),27 µM (inactive),> 100 µM (inactive),> 100 µM (inactive),> 100 µM (inactive)
C1CCN2CC3CONC3C2C1 (stereo not drawn),> 100 µM (inactive),> 100 µM (inactive),> 100 µM (inactive),> 100 µM (inactive),> 100 µM (inactive),> 100 µM (inactive),> 100 µM (inactive),> 100 µM (inactive),> 100 µM (inactive),> 100 µM (inactive),> 100 µM,> 100 µM (inactive),> 100 µM (inactive),> 100 µM (inactive),> 100 µM (inactive),–
COc1cccc(-c2nccc3c(OCc4ccccc4)c(OC)c(OC)cc23)c1,> 10 µM (inactive),> 100 µM (inactive),> 100 µM (inactive),–,> 100 µM (inactive),12 µM (inactive),30.1 µM (inactive),7.29 µM (inactive),> 100 µM (inactive),> 100 µM (inactive),4.72 µM,6.46 µM (inactive),4.25 µM (inactive),8.97 µM (inactive),7.67 µM (inactive),> 100 µM (inactive)
COCCOCCOCCOc1cccc2c1C(=O)c1cccc(OCCOCCOCCOC)c1C2=O,> 100 µM (inactive),> 100 µM (inactive),> 100 µM (inactive),> 100 µM (inactive),–,> 100 µM (inactive),–,–,> 100 µM (inactive),92.5 µM (inactive),> 100 µM,> 100 µM (inactive),> 100 µM (inactive),81.5 µM (inactive),> 100 µM (inactive),> 100 µM (inactive)
CN(C)/C(=N\C#N)N(Cc1ccccc1)Cc1ccccc1,> 100 µM (inactive),> 100 µM (inactive),17.9 µM (inactive),> 100 µM (inactive),> 100 µM (inactive),50.9 µM (inactive),> 100 µM (inactive),80.5 µM (inactive),87.3 µM (inactive),> 100 µM (inactive),16.6 µM,> 100 µM (inactive),44.3 µM (inactive),> 100 µM (inactive),> 100 µM (inactive),> 100 µM (inactive)
